Experimental data from publication PMC4490784, “Compensatory induction of MYC expression by sustained CDK9 inhibition via a BRD4-dependent mechanism” (eLife, 2015).

Key:
Assay in all cases: KINOMEscan binding assay
CAMKK2 = biological target: T1, CAMKK2 (Homo sapiens, UniProt Q96RR4); conditions: read-out: % Retention on Solid Support
T1 construct: purchased DiscoveRx KINOMEscan
Method in brief: (§1)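 Competitive displacement at the ATP site served as the measure. Over 400 kinases were included, each exposed to i-CDK9 at 1 and at 10 µM.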

DAPK1 = biological target: T2, DAPK1 (Homo sapiens, UniProt P53355); conditions: read-out: % Retention on Solid Support
T2 construct: purchased DiscoveRx KINOMEscan
Method in brief: as §1

LZK = biological target: T3, LZK (Homo sapiens, UniProt O43283)
T3 construct: purchased DiscoveRx KINOMEscan
Method in brief: as §1

MINK = biological target: T4, MINK (Homo sapiens, UniProt Q8N4C8); conditions: read-out: % Retention on Solid Support
T4 construct: purchased DiscoveRx KINOMEscan
T4 sequence (Q8N4C8 whole entry): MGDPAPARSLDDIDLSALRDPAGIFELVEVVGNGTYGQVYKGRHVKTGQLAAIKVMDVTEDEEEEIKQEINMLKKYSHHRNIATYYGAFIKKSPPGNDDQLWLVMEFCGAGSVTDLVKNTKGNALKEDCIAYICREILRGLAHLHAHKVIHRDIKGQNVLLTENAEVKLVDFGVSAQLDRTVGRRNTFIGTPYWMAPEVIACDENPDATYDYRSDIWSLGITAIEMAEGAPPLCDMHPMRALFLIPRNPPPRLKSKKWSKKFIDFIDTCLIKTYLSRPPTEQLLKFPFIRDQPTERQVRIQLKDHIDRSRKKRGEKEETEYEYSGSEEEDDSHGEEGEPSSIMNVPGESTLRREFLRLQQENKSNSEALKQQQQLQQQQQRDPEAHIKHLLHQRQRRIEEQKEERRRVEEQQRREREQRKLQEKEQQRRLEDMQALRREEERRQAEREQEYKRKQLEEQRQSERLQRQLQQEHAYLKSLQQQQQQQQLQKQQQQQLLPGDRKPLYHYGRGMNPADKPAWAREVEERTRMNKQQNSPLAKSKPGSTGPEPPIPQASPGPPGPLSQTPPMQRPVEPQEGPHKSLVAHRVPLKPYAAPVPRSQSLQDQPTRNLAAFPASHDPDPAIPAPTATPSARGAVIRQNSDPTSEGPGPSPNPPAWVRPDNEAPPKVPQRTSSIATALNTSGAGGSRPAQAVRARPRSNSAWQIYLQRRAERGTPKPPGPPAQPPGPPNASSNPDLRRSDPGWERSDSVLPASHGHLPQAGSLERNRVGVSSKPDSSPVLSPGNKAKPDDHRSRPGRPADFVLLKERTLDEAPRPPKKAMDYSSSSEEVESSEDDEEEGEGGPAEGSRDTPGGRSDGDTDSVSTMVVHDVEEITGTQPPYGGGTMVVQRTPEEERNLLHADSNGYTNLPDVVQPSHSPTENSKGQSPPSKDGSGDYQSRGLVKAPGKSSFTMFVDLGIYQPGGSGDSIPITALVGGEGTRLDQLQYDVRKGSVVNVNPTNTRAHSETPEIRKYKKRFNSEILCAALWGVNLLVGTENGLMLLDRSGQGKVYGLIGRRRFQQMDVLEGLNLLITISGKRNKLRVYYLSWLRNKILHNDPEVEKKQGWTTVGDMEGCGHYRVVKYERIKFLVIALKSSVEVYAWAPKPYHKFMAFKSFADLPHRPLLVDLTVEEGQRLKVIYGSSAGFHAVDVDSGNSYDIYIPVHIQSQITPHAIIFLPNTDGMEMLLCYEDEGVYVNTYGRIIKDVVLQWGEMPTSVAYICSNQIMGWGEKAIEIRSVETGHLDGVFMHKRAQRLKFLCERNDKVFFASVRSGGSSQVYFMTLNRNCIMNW
Method in brief: as §1

CHEK2 = biological target: T5, CHEK2 (Homo sapiens, UniProt O96017); conditions: read-out: % Retention on Solid Support
T5 construct: purchased DiscoveRx KINOMEscan
Method in brief: as §1

LKB1 = biological target: T6, LKB1 (Homo sapiens, UniProt Q15831); conditions: read-out: % Retention on Solid Support
T6 construct: purchased DiscoveRx KINOMEscan
Method in brief: as §1

BRAF = biological target: T7, BRAF (Homo sapiens, UniProt P15056); conditions: read-out: % Retention on Solid Support
T7 construct: purchased DiscoveRx KINOMEscan
Method in brief: as §1

[1] = biological target: T8, EGFR(L747-E749del, A750P) (Homo sapiens, UniProt P00533, A750P/DEL747-749)
T8 construct: purchased DiscoveRx KINOMEscan
Method in brief: as §1

PAK2 = biological target: T9, PAK2 (Homo sapiens, UniProt Q13177); conditions: read-out: % Retention on Solid Support
T9 construct: purchased DiscoveRx KINOMEscan
Method in brief: as §1

TRKA = biological target: T10, TRKA (Homo sapiens, UniProt P04629); conditions: read-out: % Retention on Solid Support
T10 construct: purchased DiscoveRx KINOMEscan
Method in brief: as §1

MKNK1 = biological target: T11, MKNK1 (Homo sapiens, UniProt Q9BUB5); conditions: read-out: % Retention on Solid Support
T11 construct: purchased DiscoveRx KINOMEscan
T11 sequence (Q9BUB5 whole entry): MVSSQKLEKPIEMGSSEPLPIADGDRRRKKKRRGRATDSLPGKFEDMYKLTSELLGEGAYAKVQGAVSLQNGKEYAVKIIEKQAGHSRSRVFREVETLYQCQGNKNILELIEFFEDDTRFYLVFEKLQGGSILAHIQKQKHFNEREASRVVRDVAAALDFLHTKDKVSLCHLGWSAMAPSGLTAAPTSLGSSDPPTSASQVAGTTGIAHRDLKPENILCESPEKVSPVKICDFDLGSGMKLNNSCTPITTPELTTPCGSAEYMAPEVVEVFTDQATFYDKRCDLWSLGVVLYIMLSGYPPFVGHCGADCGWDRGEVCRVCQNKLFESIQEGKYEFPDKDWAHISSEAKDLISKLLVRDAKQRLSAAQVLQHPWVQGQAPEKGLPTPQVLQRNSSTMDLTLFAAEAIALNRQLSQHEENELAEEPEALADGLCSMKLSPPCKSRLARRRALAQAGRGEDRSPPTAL
Method in brief: as §1

[2] = biological target: T12, RSK4(Kin.Dom.2-C-terminal) (Homo sapiens, UniProt Q9UK32)
T12 construct: RSK4(Kin.Dom.2-C-terminal); purchased DiscoveRx KINOMEscan
Method in brief: as §1

FER = biological target: T13, FER (Homo sapiens, UniProt P16591); conditions: read-out: % Retention on Solid Support
T13 construct: purchased DiscoveRx KINOMEscan
Method in brief: as §1

BTK = biological target: T14, BTK (Homo sapiens, UniProt Q06187)
T14 construct: purchased DiscoveRx KINOMEscan
T14 sequence (Q06187 whole entry): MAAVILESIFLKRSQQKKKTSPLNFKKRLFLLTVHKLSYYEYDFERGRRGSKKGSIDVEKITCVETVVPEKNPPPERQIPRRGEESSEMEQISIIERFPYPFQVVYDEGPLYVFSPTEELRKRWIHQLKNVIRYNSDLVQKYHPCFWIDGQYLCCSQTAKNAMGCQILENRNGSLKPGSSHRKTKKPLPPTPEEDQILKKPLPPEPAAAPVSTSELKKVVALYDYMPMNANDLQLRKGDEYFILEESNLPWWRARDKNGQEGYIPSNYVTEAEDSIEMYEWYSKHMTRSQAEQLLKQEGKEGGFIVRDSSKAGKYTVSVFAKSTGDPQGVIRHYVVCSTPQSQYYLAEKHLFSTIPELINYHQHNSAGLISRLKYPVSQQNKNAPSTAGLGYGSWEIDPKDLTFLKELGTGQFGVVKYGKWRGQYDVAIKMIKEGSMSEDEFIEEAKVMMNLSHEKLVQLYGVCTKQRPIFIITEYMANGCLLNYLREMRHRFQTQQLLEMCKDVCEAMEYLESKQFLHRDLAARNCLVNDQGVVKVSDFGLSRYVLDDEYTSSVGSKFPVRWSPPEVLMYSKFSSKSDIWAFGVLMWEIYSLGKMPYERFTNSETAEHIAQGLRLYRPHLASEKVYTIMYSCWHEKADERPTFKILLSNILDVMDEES
Method in brief: as §1

[3] = biological target: T15, ABL1(M351T)-phosphorylated (Homo sapiens, UniProt P00519, M351T); conditions: 1 µM i-CDK9; read-out: % Retention on Solid Support
T15 construct: purchased DiscoveRx KINOMEscan
Method in brief: as §1

LCK = biological target: T16, LCK (Homo sapiens, UniProt P06239); conditions: read-out: % Retention on Solid Support
T16 construct: purchased DiscoveRx KINOMEscan
Method in brief: as §1

MARK2 = biological target: T17, MARK2 (Homo sapiens, UniProt Q7KZI7); conditions: read-out: % Retention on Solid Support
T17 construct: purchased DiscoveRx KINOMEscan
Method in brief: as §1

GSK3B = biological target: T18, GSK3B (Homo sapiens, UniProt P49841); conditions: read-out: % Retention on Solid Support
T18 construct: purchased DiscoveRx KINOMEscan
T18 sequence (P49841 whole entry): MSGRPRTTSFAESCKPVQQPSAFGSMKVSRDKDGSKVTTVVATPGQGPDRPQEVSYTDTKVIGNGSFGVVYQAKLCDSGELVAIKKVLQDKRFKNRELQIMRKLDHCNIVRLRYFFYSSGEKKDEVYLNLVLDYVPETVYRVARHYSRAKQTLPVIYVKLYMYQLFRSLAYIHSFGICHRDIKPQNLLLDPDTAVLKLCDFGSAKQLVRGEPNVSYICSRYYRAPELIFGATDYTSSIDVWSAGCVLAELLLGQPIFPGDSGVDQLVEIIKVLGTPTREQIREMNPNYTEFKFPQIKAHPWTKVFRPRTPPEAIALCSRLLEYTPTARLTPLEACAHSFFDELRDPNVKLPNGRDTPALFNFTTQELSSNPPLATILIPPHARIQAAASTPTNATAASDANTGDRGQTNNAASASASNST
Method in brief: as §1

MAK = biological target: T19, MAK (Homo sapiens, UniProt P20794); conditions: read-out: % Retention on Solid Support
T19 construct: purchased DiscoveRx KINOMEscan
Method in brief: as §1

ROCK2 = biological target: T20, ROCK2 (Homo sapiens, UniProt O75116); conditions: read-out: % Retention on Solid Support
T20 construct: purchased DiscoveRx KINOMEscan
T20 sequence (O75116 whole entry): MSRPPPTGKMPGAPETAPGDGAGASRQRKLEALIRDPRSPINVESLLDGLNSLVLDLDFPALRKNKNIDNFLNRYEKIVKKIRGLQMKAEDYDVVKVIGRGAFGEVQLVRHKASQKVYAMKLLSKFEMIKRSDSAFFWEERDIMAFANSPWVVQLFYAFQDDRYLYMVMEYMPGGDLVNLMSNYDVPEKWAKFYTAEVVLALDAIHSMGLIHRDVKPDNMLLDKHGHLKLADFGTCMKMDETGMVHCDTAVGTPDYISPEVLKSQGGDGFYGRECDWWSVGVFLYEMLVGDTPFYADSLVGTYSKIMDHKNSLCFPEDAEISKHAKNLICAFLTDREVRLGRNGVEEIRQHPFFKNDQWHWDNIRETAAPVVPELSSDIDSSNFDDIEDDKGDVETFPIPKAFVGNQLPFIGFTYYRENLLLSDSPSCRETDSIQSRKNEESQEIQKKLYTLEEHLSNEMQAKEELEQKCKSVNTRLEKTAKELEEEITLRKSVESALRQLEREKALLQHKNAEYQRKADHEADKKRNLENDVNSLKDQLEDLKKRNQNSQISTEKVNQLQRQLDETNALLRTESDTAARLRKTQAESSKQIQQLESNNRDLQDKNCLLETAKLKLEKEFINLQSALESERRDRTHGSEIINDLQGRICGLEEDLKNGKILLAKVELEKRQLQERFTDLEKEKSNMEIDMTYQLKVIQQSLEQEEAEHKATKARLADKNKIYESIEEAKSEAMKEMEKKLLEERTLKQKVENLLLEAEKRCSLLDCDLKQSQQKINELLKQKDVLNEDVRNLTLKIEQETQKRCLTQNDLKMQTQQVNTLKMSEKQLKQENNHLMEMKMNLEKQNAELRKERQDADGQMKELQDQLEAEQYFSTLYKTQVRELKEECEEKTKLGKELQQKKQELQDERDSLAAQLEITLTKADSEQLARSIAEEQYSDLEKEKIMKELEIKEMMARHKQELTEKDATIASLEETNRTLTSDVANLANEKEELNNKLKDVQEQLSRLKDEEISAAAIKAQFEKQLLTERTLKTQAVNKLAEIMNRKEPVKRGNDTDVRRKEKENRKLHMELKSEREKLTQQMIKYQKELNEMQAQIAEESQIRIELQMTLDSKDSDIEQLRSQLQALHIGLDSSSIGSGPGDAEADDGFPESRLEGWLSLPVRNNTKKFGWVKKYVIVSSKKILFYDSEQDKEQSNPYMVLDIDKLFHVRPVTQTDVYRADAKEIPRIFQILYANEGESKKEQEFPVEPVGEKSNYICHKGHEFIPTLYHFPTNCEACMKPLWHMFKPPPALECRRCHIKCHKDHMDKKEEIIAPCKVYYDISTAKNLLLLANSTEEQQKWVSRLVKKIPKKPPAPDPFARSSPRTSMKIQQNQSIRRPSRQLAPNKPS
Method in brief: as §1

RIOK2 = biological target: T21, RIOK2 (Homo sapiens, UniProt Q9BVS4); conditions: read-out: % Retention on Solid Support
T21 construct: purchased DiscoveRx KINOMEscan
Method in brief: as §1

MLK3 = biological target: T22, MLK3 (Homo sapiens, UniProt Q16584)
T22 construct: purchased DiscoveRx KINOMEscan
Method in brief: as §1

YANK2 = biological target: T23, YANK2 (Homo sapiens, UniProt Q9NY57); conditions: read-out: % Retention on Solid Support
T23 construct: purchased DiscoveRx KINOMEscan
Method in brief: as §1

BRSK2 = biological target: T24, BRSK2 (Homo sapiens, UniProt Q8IWQ3); conditions: read-out: % Retention on Solid Support
T24 construct: purchased DiscoveRx KINOMEscan
Method in brief: as §1

RIOK3 = biological target: T25, RIOK3 (Homo sapiens, UniProt O14730); conditions: read-out: % Retention on Solid Support
T25 construct: purchased DiscoveRx KINOMEscan
Method in brief: as §1

PIP5K1A = biological target: T26, PIP5K1A (Homo sapiens, UniProt Q99755); conditions: read-out: % Retention on Solid Support
T26 construct: purchased DiscoveRx KINOMEscan
Method in brief: as §1

CLK1 = biological target: T27, CLK1 (Homo sapiens, UniProt P49759); conditions: read-out: % Retention on Solid Support
T27 construct: purchased DiscoveRx KINOMEscan
Method in brief: as §1

[4] = biological target: T28, ABL1(H396P)-nonphosphorylated (Homo sapiens, UniProt P00519, H396P); conditions: read-out: % Retention on Solid Support
T28 construct: purchased DiscoveRx KINOMEscan
Method in brief: as §1

GRK4 = biological target: T29, GRK4 (Homo sapiens, UniProt P32298); conditions: read-out: % Retention on Solid Support
T29 construct: purchased DiscoveRx KINOMEscan
T29 sequence (P32298 whole entry): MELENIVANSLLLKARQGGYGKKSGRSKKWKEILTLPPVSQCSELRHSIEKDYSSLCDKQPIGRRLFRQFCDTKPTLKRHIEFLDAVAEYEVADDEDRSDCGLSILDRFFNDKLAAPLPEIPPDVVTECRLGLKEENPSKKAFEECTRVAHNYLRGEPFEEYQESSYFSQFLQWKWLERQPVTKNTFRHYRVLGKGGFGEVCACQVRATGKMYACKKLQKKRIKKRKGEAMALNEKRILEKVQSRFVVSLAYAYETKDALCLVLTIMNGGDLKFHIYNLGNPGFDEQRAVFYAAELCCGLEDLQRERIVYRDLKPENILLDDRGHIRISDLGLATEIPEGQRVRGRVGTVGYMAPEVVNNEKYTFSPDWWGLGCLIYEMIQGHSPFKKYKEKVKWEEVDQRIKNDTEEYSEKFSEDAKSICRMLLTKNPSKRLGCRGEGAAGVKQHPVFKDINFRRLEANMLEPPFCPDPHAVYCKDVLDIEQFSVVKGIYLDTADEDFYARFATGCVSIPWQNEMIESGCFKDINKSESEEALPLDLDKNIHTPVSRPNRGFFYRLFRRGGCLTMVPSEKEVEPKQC
Method in brief: as §1

Compound: N[C@H]1CC[C@H](Nc2cc(-c3cccc(NCc4cccc(F)c4)n3)c(Cl)cn2)CC1 [i-CDK9, N2′-(trans-4-aminocyclohexyl)-5′-chloro-N6-(3-fluorobenzyl)-2,4′-bipyridine-2′,6-diamine]
- remaining binding at 1 µM (CAMKK2; 1 µM i-CDK9): 73%
- remaining binding at 10 µM (CAMKK2; 10 µM i-CDK9): 100%
- remaining binding at 1 µM (DAPK1; 1 µM i-CDK9): 64%
- remaining binding at 10 µM (DAPK1; 10 µM i-CDK9): 100%
- % Retention on Solid Support (LZK; 1 µM i-CDK9): 100%
- % Retention on Solid Support (LZK; 10 µM i-CDK9): 100%
- remaining binding at 1 µM (MINK; 1 µM i-CDK9): 100%
- remaining binding at 10 µM (MINK; 10 µM i-CDK9): 65%
- remaining binding at 1 µM (CHEK2; 1 µM i-CDK9): 98%
- remaining binding at 10 µM (CHEK2; 10 µM i-CDK9): 100%
- remaining binding at 1 µM (LKB1; 1 µM i-CDK9): 93%
- remaining binding at 10 µM (LKB1; 10 µM i-CDK9): 96%
- remaining binding at 1 µM (BRAF; 1 µM i-CDK9): 100%
- remaining binding at 10 µM (BRAF; 10 µM i-CDK9): 70%
- % Retention on Solid Support ([1]; 1 µM i-CDK9): 46%
- % Retention on Solid Support ([1]; 10 µM i-CDK9): 85%
- remaining binding at 1 µM (PAK2; 1 µM i-CDK9): 98%
- remaining binding at 10 µM (PAK2; 10 µM i-CDK9): 91%
- remaining binding at 1 µM (TRKA; 1 µM i-CDK9): 100%
- remaining binding at 10 µM (TRKA; 10 µM i-CDK9): 89%
- remaining binding at 1 µM (MKNK1; 1 µM i-CDK9): 100%
- remaining binding at 10 µM (MKNK1; 10 µM i-CDK9): 100%
- % Retention on Solid Support ([2]; 1 µM i-CDK9): 53%
- % Retention on Solid Support ([2]; 10 µM i-CDK9): 51%
- remaining binding at 1 µM (FER; 1 µM i-CDK9): 56%
- remaining binding at 10 µM (FER; 10 µM i-CDK9): 100%
- % Retention on Solid Support (BTK; 1 µM i-CDK9): 100%
- % Retention on Solid Support (BTK; 10 µM i-CDK9): 100%
- remaining binding at 1 µM [3]: 96%
- remaining binding at 1 µM (LCK; 1 µM i-CDK9): 100%
- remaining binding at 10 µM (LCK; 10 µM i-CDK9): 100%
- remaining binding at 1 µM (MARK2; 1 µM i-CDK9): 76%
- remaining binding at 10 µM (MARK2; 10 µM i-CDK9): 86%
- remaining binding at 1 µM (GSK3B; 1 µM i-CDK9): 79%
- remaining binding at 10 µM (GSK3B; 10 µM i-CDK9): 74%
- remaining binding at 1 µM (MAK; 1 µM i-CDK9): 100%
- remaining binding at 10 µM (MAK; 10 µM i-CDK9): 30%
- remaining binding at 1 µM (ROCK2; 1 µM i-CDK9): 100%
- remaining binding at 10 µM (ROCK2; 10 µM i-CDK9): 90%
- remaining binding at 1 µM (RIOK2; 1 µM i-CDK9): 100%
- remaining binding at 10 µM (RIOK2; 10 µM i-CDK9): 32%
- % Retention on Solid Support (MLK3; 1 µM i-CDK9): 85%
- % Retention on Solid Support (MLK3; 10 µM i-CDK9): 100%
- remaining binding at 1 µM (YANK2; 1 µM i-CDK9): 90%
- remaining binding at 10 µM (YANK2; 10 µM i-CDK9): 100%
- remaining binding at 1 µM (BRSK2; 1 µM i-CDK9): 93%
- remaining binding at 10 µM (BRSK2; 10 µM i-CDK9): 88%
- remaining binding at 1 µM (RIOK3; 1 µM i-CDK9): 86%
- remaining binding at 10 µM (RIOK3; 10 µM i-CDK9): 73%
- remaining binding at 1 µM (PIP5K1A; 1 µM i-CDK9): 83%
- remaining binding at 10 µM (PIP5K1A; 10 µM i-CDK9): 99%
- remaining binding at 1 µM (CLK1; 1 µM i-CDK9): 14%
- remaining binding at 10 µM (CLK1; 10 µM i-CDK9): 0.55%
- remaining binding at 1 µM ([4]; 1 µM i-CDK9): 45%
- remaining binding at 10 µM ([4]; 10 µM i-CDK9): 97%
- remaining binding at 1 µM (GRK4; 1 µM i-CDK9): 100%
- remaining binding at 10 µM (GRK4; 10 µM i-CDK9): 100%
